Experimental data published in US9415019B2, “Nanocapsules with a polymer shell” (Universidade de Santiago de Compostela, priority 2011, dated 2016).

Tested on: lung cancer cell line NCI-H460
Test: inhibition of cell proliferation
Assay type: cell-based
Conditions: Homo sapiens
Method: In order to evaluate the potential of HA nanocapsules encapsulating cytostatic docetaxel molecule to inhibit cell proliferation of lung cancer cell line NCI-H460, HA nanocapsules were prepared using hexadecyltrimethylammonium bromide (1.8 mg) according to the procedure described in Example 6. The results in FIG. 7 show the greatest ability to inhibit the proliferation of nanocapsules encapsulating docetaxel compared to the free molecule when systems are brought into contact for 2 to 48 h with the cancer cells. Moreover, one can see the safety of the systems without docetaxel. IC50 values, the concentration which produces 50% mortality of the population, was calculated using Graph Pad Prism 2.1 (Graph Pad Software).
In order to evaluate the potential of Pasn nanocapsules encapsulating docetaxel to inhibit cell proliferation of lung cancer cell line NCI-H460, PAsn nanocapsules were prepared using hexadecyltrimethylammonium bromide (1.8 mg) according to the procedure described in Example 12. The results in FIG. 11 show the greatest ability to inhibit the proliferation of nanocapsules encapsulating docetaxel compared to the free molecule when systems are brought into contact for 2 to 48 h with the cancer cells. Moreover, one can see the safety of the systems without docetaxel. IC50 values were calculated using Graph Pad Prism 2.1 (Graph Pad Software).

IC50 (NCI-H460, in contact with the cells for 2 h): 105 nM
IC50 (NCI-H460, in contact with the cells for 48 h): 36 nM
SMILES: CC(=O)O[C@@]12CO[C@@H]1C[C@H](O)[C@@]1(C)C(=O)[C@H](O)C3=C(C)[C@@H](OC(=O)[C@H](O)[C@@H](NC(=O)OC(C)(C)C)c4ccccc4)C[C@@](O)([C@@H](OC(=O)c4ccccc4)[C@H]21)C3(C)C [docetaxel]
